SMILES strings stand for the structures. Results filed as inconclusive are left out. Activity calls are given as the source filed them. How the calls were made is not given here.

One test has as its system HEK293 cytotoxicity, plate reader. Briefly: viability loss in HEK293 kidney cells – cell-based, plate reader, dry powder, set 2, cytotoxicity control, dose response (AID 720715).
Conditions: not given
As to `COc1ccc(Nc2nc(N3CCCCC3)c3ccccc3n2)cc1`, the AC50 (as a rule, the concentration at which the activity in the assay is half-maximal) is 23.8 µM.

For the compound `CCOC(=O)c1ccc(NC(=O)Cn2ncc(Cl)c(Cl)c2=O)cc1`, the AC50 was 15.1 µM.

For `COc1cc(CN2CCc3ccccc3C2)ccc1O`, the AC50 was 14.7 µM.

As for `O=C1CSc2ccc(C(=O)Nc3cccc(S(=O)(=O)Nc4ccc(Br)cc4)c3)cc2N1`, the AC50 is 19.3 µM.

Regarding `CN(C)c1nc(-c2ccccn2)nnc1-c1ccccc1`, the AC50 is 5.55 µM.

Take `CC(C)(C)NC(=O)CSc1nc2ccc(NC(=O)CSc3nnnn3Cc3ccccc3)cc2s1`: the AC50 is 15.9 µM.

For the compound `CCOC(=O)C1CCN(C(=O)c2ccc(OCC(=O)Nc3cccc(C(F)(F)F)c3)c(OC)c2)CC1`, the AC50 was 5.01 µM.

Regarding `CN(C(=O)COc1ccccc1C(=O)NCCOc1ccccc1)c1ccccc1`, the AC50 is 18.1 µM.

Test system in another test: not listed separately
The test is described as above. The settings on record: HEK293 cytotoxicity, plate reader; at 12 µM (top of the series).
On to `O=C(c1nnsc1S(=O)c1ccc(Cl)cc1)N1CCOCC1` (stereo unspecified), for which the activity change, negative = cytotoxicity is 0.296% (inactive).

The same test, now with this note: HEK293 cytotoxicity, plate reader; at 26 µM (top of the series).
For `CC(=O)Nc1cccc(NC(=O)CSc2ncc(-c3ccc(Cl)cc3)n2Cc2ccco2)c1`, the activity change, negative = cytotoxicity is -4.47% (inactive).

With `Cc1cc(N2CCCC2=O)cc(C)c1S(=O)(=O)NCCOc1ccc(C(C)(C)C)cc1`, the activity change, negative = cytotoxicity is 57.1% (inactive).

For the compound `Cc1ccc2cc(CN(CC3CCCO3)C(=O)NC3CCCCC3)c(=O)[nH]c2c1C` (stereo unspecified), the activity change, negative = cytotoxicity is 5.24% (inactive).

`CC(=O)N1CCN(C(=O)CCc2cc(C(C)(C)C)c(O)c(C(C)(C)C)c2)CC1`: the activity change, negative = cytotoxicity is -13.7% (inactive).

On to `O=c1c2ccccc2nc2n1C(CSCc1ccc(Cl)cc1Cl)CS2` (stereo unspecified), for which the activity change, negative = cytotoxicity was -9.98% (inactive).

Turning to `Fc1ccc(-n2nnnc2-c2cnc(-c3cccs3)nc2C(F)(F)F)cc1`, the activity change, negative = cytotoxicity is -31.8% (inactive).

Turning to `COc1ccc(NS(=O)(=O)c2ccc(C(=O)N3CCCCCC3)cc2)cc1`, the activity change, negative = cytotoxicity was -33.4% (inactive).

Consider `CN(CC(=O)Nc1cccc(S(=O)(=O)N2CCOCC2)c1)CC(=O)Nc1ccc(Cl)c(C(F)(F)F)c1`, for which the activity change, negative = cytotoxicity was -50% (inactive).

Take `Cc1cc2c(cc(C(=O)N3CCC(C(=O)NC4CCCC4)CC3)n2Cc2c(F)cccc2Cl)o1`: the activity change, negative = cytotoxicity is -24.5% (inactive).

For `COc1ccc(NC(=O)c2nc(S(=O)(=O)Cc3cccc(C)c3)ncc2Cl)c(OC)c1`, the activity change, negative = cytotoxicity is -19.6% (inactive).

Turning to `COc1ccccc1N1CCN(c2ncc(C(=O)N3CCN(c4cccc(Cl)c4)CC3)c3ccccc23)CC1`, the activity change, negative = cytotoxicity is -7.71% (inactive).

For `CCCOc1ccccc1C1CC(=O)Nc2cc3c(cc21)OCO3` (stereo unspecified), the activity change, negative = cytotoxicity was -19.2% (inactive).

Regarding `CC(C)[C@H](NC(=O)OC(C)(C)C)c1nnc(S(=O)(=O)Cc2c(F)cccc2Cl)o1`, the activity change, negative = cytotoxicity was -61.3% (inactive).

Consider `CCOC(=O)C1(Cc2ccc(Cl)cc2)CCN(C(C)Cc2ccc(O)c(OC)c2)CC1` (stereo unspecified), for which the activity change, negative = cytotoxicity was -31.7% (inactive).

Take `Nc1nonc1C(=O)NCCNCc1cc(Br)ccc1OCc1ccc(F)cc1`: the activity change, negative = cytotoxicity is -59.1% (inactive).

Regarding `COc1cc2ncnc(N[C@H](C)c3ccccc3)c2cc1OC`, the activity change, negative = cytotoxicity was 70.1% (inactive).

With `CCCc1nnc(NC(=O)c2nc(S(=O)(=O)Cc3ccc(C)cc3)ncc2Cl)s1`, the activity change, negative = cytotoxicity was -2.77% (inactive).

The values above are taken from PubChem BioAssay AID720715 (Broad Institute, 2013).
